5 compounds from patent US20210163489A1, “PYRAZOLOPYRIMIDINE DERIVATIVES AND THE COMPOSITIONS AND METHODS OF TREATMENT REGARDING THE SAME” (NysnoBio Ireland DAC, priority 2016, published 2021) can be followed below.

One data set addresses T1, Parkin ligase (Homo sapiens, UniProt O60260).
T1 construct: Enzyme: Parkin-His tagged 203 μM (10.5 mg/ml)
T1 sequence (O60260 1-465): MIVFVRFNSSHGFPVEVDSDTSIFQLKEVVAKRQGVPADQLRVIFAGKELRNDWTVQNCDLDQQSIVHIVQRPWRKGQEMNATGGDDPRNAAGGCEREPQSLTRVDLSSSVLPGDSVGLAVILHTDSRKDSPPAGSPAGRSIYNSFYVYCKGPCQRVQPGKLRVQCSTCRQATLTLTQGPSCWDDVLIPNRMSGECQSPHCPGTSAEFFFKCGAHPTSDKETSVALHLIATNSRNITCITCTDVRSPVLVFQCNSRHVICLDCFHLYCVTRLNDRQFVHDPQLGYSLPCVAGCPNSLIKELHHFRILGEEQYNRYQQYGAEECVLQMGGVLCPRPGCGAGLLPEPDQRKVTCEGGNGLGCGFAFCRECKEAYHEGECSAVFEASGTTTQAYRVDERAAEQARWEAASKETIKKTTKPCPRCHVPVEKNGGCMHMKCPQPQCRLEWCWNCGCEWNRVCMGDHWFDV
In words: Activity-based probe assay using an ubiquitin vinyl sulfone probe (TR-FRET). Type of data set: biochemical. To be noted: activation of heat activated Parkin, HA-Ub-VS probe; read-out: Probe Assay EC50 (μM) [Example 2]. The method, then: An Ubiquitin vinyl sulfone probe can be used that irreversibly binds to the active site cysteine of Parkin ligase. Covalent attachment of the probe to the Parkin can be monitored by TR-FRET. Candidate activator compounds can be identified by increasing the activity of Parkin ligase due to an increase in TR-FRET signal. Screening for activating compounds can be distinguished from the controls as follows:
100% activation signal=Heat activated Parkin+100 nM control activator in DMSO. 0% activation signal=Heat activated Parkin+DMSO only. Parkin activators can be identified by an increase of the 0% activation signal TR-FRET signal.
• Assay Plate: White 384 well plate (Corning 3572) • Enzyme: Parkin-His tagged 203 μM (10.5 mg/ml) • Probe: Ubiquitin vinyl-sulfone (HA-Ub-VS Boston Biochem U-212) • DMSO: DMSO (Sigma cat # D4540-100ML) • Reaction Buffer: 50 mM HEPES (pH 8.5), 150 mM NaCl, 0.01% Tween 20, 0.1% BSA • Detection Buffer: 50 mM HEPES (pH 8.5), 150 mM NaCl, 0.01% Tween 20, 0.1% BSA, 800 mM KF • Detection Reagent A: 2.6 nM Anti-6HIS-Eu cryptate and 40 nM Anti-HA-XL665 in detection buffer • Eu cryptate: Anti-6HIS-Eu cryptate (CisBio 61HISKLA) • XL665: Anti-HA-XL665 (CisBio 610HAXLA) Enzyme Reaction (15 min Pre Incubation Parkin with Activator Only) • Parkin: 40 nM • HA-Ub-VS Probe: 70 nM • Activator/DMSO: 2× Activator/2% DMSO • Reaction time: 60 minutes • Temperature: 22° C. • Total volume: 10 μl reaction
• Take 10 μl of Enzyme Reaction above and add 10 μl detection Reagent A under the following conditions: • Reaction time: 60 minutes • Temperature: 22° C. • Total volume: 20 μl
Assay procedure (Using HP D-300 compound dispenser and Bravo for the operation):
1) Heat activate Parkin in reaction buffer (500 μl/1.5 ml tube: Eppendorf Thermomixer 5 minutes, 400 rpm at 58° C. and put on ice until needed). 2) Load assay plate wells with 4.8 μl 84.5 nM Parkin in reaction buffer by use of Bravo. 3) Deliver 0.2 μl 200× activator candidates in DMSO by use of HP D-300 compound dispenser. Highest 200× concentration=20 μm and then twofold dilutions. 4) Spin 1000 rpm, 2 minutes, at room temp. 5) Incubate plate for 15 minutes at room temp. 6) Add 5 μl 140 nM HA-Ub-VS Probe in reaction buffer by use of Bravo. 7) Spin 1000 rpm, 2 minutes, at room temp. 8) Incubate plate for 60 minutes at room temp. 9) Add 10 μl 2.6 nM Anti-6HIS-Eu cryptate and 40 nM Anti-HA-XL665 in detection buffer. 10) Spin 1000 rpm, 2 minutes, at room temp. 11) Incubate plate for 60 minutes at room temp. 12) Read plates on Perkin Elmer Envision instrument with the following parameters:
(§1) LANCE dual laser protocol loaded into the Envision® software
(§2) Top Mirror: LANCE/DELFIA Duel/Bias (Bar code 446) Emission Filter: APC 665 EM (Bar code 205) 2nd Emission Filter: Europium 615 EM (Bar code 203) Read […] (channel 1) and 615 nm (channel 2) wavelengths on Envision®
(§3) Data Analysis: The Data can be read in CSV files. There are two tables in those CSV files, which are the values of 655 nm (channel 1) and 615 nm (channel 2) wavelengths respectively. The data is converted to an HTRF Ratio=(Channel 1/Channel 2)*10,000
The average of all the 0 uM controls (DMSO only)=BKGD (Background—0% activation). Subtract BKGD from each HTRF Ratio value=HTRF-BKGD. The average of all the […] 100 nM control activator in DMSO controls=Max (100% activation). The following equation is then used to calculate % Activation for each well/candidate as follows: % Activation=(HTRF−BKGD/Max)*100.
Graphpad Prisim was used with Transform X values: X=Log(X) and nonlinear regression (dose-response-stimulation): Log(agonist) vs Response—variable slope (four parameters) with constrains set to Bottom=0 and Top=100.
For orientation: TR-FRET usually uses a lanthanide donor and a delayed reading to cut background.

Data set [1] in a line: Metabolic stability in rat liver microsomes (RLM). Type of data set: in vitro ADME. To be noted: 1 μM compound, 1.0 mg/mL microsome, NADPH. As to the method:
Compounds were also tested for metabolic stability in both rat liver microsomes (RLM) and human liver microsomes (HLM) and their half-life calculated (See Table 6). The assay was performed as follows. The total volume for each incubation was 250 μL. A 100 μM DMSO solution of compound (diluted from 10 mM stock solution) was spiked into 50 mM KH2PO4 (pH 7.4) buffer containing liver microsome at a concentration of 1.0 mg/mL. The reaction was initiated by the addition of 50 μL of 1 mM NADPH. The final concentration of each compound was 1 μM (1% DMSO). The positive controls, phenacetin for CYP1A2, diclofenac for CYP2C9, omeprazole for CYP2C19, dextromethorphan for CYP2D6 and midazolam for CYP3A4 were added to a separate tube with the final substrate concentrations of 1 μM (1% DMSO) for evaluating the enzyme activities in the liver microsomes. At 0, 15, 30 and 60 min, an aliquot of 15 μL reaction mixtures were removed and 200 μL of methanol (with internal standard of 25 ng/mL propranolol) was added to quench the reaction. The resulting mixture was centrifuged and supernatant was used for LC-MS/MS analysis.
The signals for each compound, or the metabolites for the probe substrates and the internal standard were integrated and the peak area ratios to internal standard were generated. Percent parent remaining at a specified timepoint was calculated based on the peak area ratios at time 0 (as 100%) for in vitro metabolic stability studies in liver microsome and hepatocyte. The observed rate constant (kobs) for the metabolism of substrates was calculated by plotting the natural log of percentage substrate remaining versus time of incubation with the slope being kobs. The half-life (T1/2) was calculated according to the following equation: […]
A general note: Liver microsomes are a subcellular fraction often used to study metabolism.

The next data set concerns the target T2, Parkin (Homo sapiens, UniProt O60260).
T2 construct: Enzyme 3: Parkin-His tagged 203 μM (10.5 mg/ml)
In words: Parkin pUB auto-ubiquitinylation assay (TR-FRET). Type of data set: biochemical. The settings on record: activation of pUb activated Parkin; read-out: Auto-ubiq EC50 (μM) [Example 3].
Excerpt: A Parkin pUB Auto-ubiquitinylation Assay is used to evaluate a compound's potency to activate Parkin's ability to Auto-ubiquitinylate itself.
The principle of this assay is that the E3 Ligase Parkin catalyzes the transfer of Ubiquitin to target proteins, but also has the ability to auto-ubiquitinylate itself. The phospho-Ubiquition (pUb) added to the assay alters the Parkin to a state where small molecule activators can enable the Parkin to auto-ubiquitinylate though the E1-E2 cascade reaction. The use of a Eu cryptate Ubiquition and anti 6His-d2 that binds to the His tagged Parkin will give a signal when the Eu cryptate Ubiquition is auto-ubiquitinylate onto the Parkin which can be monitored by TR-FRET.
Similar to the Activity-based probe assay in Example 2, screening for activating compounds can be distinguished from the controls as follows:
100% activation signal=pUb activated Parkin+40 nM control activator in DMSO. 0% activation signal=pUb activated Parkin+DMSO only. Parkin activators can be identified by an increase of the 0% activation signal TR-FRET signal.
• Assay Plate: White 384 well plate (Corning 3572) • Enzyme 1: E1 (Ubiquitin-activating enzyme/UBE1 Boston Biochem E-305) • Enzyme 2: E2 (UBcH7/Ube2L3 Boston Biochem E2-640) • Enzyme 3: Parkin-His tagged 203 μM (10.5 mg/ml) • pUb: Phospho-Ubiquitin (S65) (Boston Biochem U-102) • Eu Cryptate Reagent: Ubiquitin Eu (CisBio 61UBIKLA) • DMSO: DMSO (Sigma-34869-2.5L) • Reaction Buffer: 50 mM HEPES, 50 mM NaCl, 1 mM MgCl2, 0.005% Tween 20, 0.1% • PF-127 (Fisher Scientific 50-310-494), pH 8.5 • Detection Buffer: 50 mM HEPES, 50 mM NaCl, 800 mM KF, 5 mM EDTA, 0.005% • Tween 20, 0.1% PF-127, pH 8.5 • Detection Reagent Z: 13.4 nM Anti-6His-d2 in detection buffer • d2 Reagent: Anti-6His-d2 (CisBio 61HISDLA)
Enzyme Reaction (15 min Pre-Incubation with Parkin, pUb and Activator Only) • Parkin: 196 nM • pUb: 196 nM • DMSO: 1% DMSO • E1: 5 nM • E2: 50 nM • Ubiquitin Eu: 8.8 nM • Reaction time: 120 minutes • Temperature: 22° C. • Total volume: 10 μl reaction
Take 10 μl of Enzyme Reaction above and add 10 μl detection Reagent Z under the following conditions:
Reaction time: 60 minutes
1) Load assay plate wells with 4.9 μl 400.0 nM Parkin, 400 nM pUb in reaction buffer by use of Eppendorf 12-channel pipette. 2) Deliver 0.1 μl 100× activator candidates in DMSO by use of Echo 555 compound dispenser. Highest 100× concentration=100 μm and then twofold dilutions. Add each compound and control in duplicate wells. 3) Spin 1000 rpm, 2 minutes, at room temp. 4) Incubate plate for 15 minutes at room temp. 5) Add 5 μl 10 nM E1, 100 nM E2, 17.6 nM Ubiquitin Eu and 2 mM ATP in Reaction Buffer by use of Eppendorf 12-channel pipette. 6) Spin 1000 rpm, 2 minutes, at room temp. 7) Incubate plate for 120 minutes at room temp. 8) Add 10 μl 13.4 nM anti his d2 in detection buffer by use of Eppendorf 12-channel pipette. 9) Spin 1000 rpm, 2 minutes, at room temp. 10) Incubate plate for 120 minutes at room temp. 11) Read plates on Perkin Elmer Envision instrument with the following parameters:
as §1, §2, §3
The average of all the 0 uM controls (DMSO only)=BKGD (Background—0% activation). Subtract BKGD from each HTRF Ratio value=HTRF-BKGD. The average of all the 100 uM control activator in DMSO controls=Max (100% activation). The following equation is then used to calculate % Activation for each well/candidate as follows: % Activation=(HTRF−BKGD/Max)*100.
XLFIT5 model 205 was applied for the data analysis. […]

Each structure is given as a SMILES string.

Consider `COc1ccc(-c2cnc3c(O)cc(C)nn23)cc1` [Compound V3], for which the EC50 on Parkin ligase was over 100 µM. As to `COc1ccc(-c2cnc3c(S)cc(C)nn23)cc1` [Compound T3], in data set [1], the “RLM t1/2” value was determined as 96.0 min. As for `COc1ccc(-c2cnc3c(S)cc(C)nn23)cc1` [Compound Q3], at Parkin, the EC50 is over 40 µM. In addition, the “RLM t1/2” value in data set [1] was found to be 6.0 min. With `COc1ccc(-c2cnn3c(O)c4c(nc23)CN(C)CC4)cc1` [Compound R3], the concentration for a half-maximal effect (EC50) at Parkin ligase is over 100 µM. Regarding `Cc1ccc(-c2cnc3c(O)cc(C)nn23)cc1` [Compound U3], the EC50 on Parkin ligase is over 100 µM.

One may read the EC50 as the concentration needed to bring the measured effect to its halfway point.
